Test results published in patent US10285989B2, “Pyrimidinone amide compounds as PDE2 inhibitors” (Merck Sharp & Dohme Corp., priority 2015, dated 2019).
Read-outs that look alike come from different tables or passages of the source.

Legend:
[1] = biological target: Rhesus PDE2A3 (Macaca mulatta, UniProt B3VTJ2); test: PDE2 fluorescence polarization (IMAP FP) inhibition assay, rhesus PDE2A3; assay type: biochemical, rhesus macaque
[2] = biological target: human PDE2A1 (Homo sapiens (Human), UniProt O00408); test: PDE2 IMAP FP inhibition assay, human PDE2A1 (selectivity panel format); assay type: biochemical
human PDE2A1, sequence (O00408 other isoform, or with tags, fused parts or gaps): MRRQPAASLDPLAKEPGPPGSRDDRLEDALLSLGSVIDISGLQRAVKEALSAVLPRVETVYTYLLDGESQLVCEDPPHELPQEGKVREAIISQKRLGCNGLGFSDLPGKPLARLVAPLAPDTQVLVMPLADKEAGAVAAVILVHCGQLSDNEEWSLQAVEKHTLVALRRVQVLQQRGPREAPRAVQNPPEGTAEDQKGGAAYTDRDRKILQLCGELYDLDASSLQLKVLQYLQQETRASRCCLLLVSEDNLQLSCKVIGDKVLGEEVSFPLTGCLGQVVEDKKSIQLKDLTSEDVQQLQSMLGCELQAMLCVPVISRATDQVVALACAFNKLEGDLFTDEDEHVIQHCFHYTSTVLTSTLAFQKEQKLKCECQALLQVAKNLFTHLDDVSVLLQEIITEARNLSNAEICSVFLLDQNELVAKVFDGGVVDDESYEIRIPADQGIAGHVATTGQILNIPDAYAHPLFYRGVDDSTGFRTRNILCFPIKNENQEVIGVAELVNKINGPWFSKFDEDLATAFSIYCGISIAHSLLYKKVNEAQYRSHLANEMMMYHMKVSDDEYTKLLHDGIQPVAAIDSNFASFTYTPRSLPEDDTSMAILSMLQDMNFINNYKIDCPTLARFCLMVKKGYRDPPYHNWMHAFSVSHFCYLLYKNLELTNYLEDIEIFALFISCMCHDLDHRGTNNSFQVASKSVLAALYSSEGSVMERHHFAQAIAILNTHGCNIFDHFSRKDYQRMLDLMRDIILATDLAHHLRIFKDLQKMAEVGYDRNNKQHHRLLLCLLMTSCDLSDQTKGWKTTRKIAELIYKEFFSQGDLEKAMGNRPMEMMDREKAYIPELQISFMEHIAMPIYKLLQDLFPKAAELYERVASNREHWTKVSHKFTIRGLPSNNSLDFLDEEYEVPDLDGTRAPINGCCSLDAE
In short: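 Enzyme dosed to give about 20% substrate turnover acts for 60 min at room temperature on 50 nM FAM-cAMP plus 1000 nM cGMP (Tris pH 7.2, MgCl2, DTT, Tween-20 buffer). IMAP binding solution then stops the reaction; after 1 h, polarization is measured from parallel and perpendicular fluorescence.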

[3] = biological target: P-glycoprotein (P-gp) (Homo sapiens (Human), UniProt P08183); test: P-gp transport, experimental BA/AB ratio, human; assay type: in vitro ADME; conditions: LLC-PK1, 1 μM substrate concentration
P-glycoprotein (P-gp), sequence (P08183 whole entry): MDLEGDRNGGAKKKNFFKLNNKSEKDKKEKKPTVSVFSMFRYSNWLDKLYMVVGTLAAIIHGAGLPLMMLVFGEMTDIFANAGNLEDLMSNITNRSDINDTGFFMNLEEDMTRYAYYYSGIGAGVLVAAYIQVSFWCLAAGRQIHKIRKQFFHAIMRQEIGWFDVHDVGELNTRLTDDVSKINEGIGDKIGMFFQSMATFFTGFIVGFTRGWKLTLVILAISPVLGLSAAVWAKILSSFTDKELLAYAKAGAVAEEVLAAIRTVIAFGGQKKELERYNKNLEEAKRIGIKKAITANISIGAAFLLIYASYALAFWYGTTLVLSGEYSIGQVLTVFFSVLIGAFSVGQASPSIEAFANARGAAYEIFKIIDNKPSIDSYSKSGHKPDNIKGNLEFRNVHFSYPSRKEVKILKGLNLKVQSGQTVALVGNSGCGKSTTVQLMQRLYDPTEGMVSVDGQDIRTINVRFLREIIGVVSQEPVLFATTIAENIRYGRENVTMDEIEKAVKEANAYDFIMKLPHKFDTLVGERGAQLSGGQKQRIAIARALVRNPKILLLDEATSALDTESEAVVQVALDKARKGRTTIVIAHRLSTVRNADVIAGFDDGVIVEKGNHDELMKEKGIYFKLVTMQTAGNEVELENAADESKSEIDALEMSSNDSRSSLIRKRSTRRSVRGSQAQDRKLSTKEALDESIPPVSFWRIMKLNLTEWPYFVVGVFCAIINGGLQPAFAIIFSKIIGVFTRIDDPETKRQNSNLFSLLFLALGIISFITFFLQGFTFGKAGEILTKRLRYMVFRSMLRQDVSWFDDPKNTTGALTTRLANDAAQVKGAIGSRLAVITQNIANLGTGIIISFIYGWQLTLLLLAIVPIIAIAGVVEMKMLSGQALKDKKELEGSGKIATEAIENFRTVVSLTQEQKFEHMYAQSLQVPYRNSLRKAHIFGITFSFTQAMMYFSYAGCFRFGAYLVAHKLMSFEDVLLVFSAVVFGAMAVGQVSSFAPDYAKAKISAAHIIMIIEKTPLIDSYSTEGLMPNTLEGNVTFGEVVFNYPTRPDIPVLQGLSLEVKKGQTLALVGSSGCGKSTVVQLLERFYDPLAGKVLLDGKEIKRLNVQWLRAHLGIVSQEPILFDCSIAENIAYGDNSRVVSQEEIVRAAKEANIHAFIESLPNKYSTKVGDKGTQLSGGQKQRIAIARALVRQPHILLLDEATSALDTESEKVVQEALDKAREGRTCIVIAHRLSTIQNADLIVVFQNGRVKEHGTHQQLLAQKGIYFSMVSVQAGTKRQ
From the text: (§1) See Doan et al. “Passive permeability and P-glycoprotein-mediated efflux differentiate central nervous system (CNS) and non-CNS marketed drugs”, J. Pharm. Exper. […] Desirable human BA/AB ratio is less than 2.0. […] See, for example, Desai, et al. Integration of in Silico and in Vitro Tools for Scaffold Optimization during Drug Discovery: Predicting P-glycoprotein Efflux” Mol. Pharmac.

[4] = biological target: P-glycoprotein (P-gp, rat Mdr1a) (Rattus norvegicus, UniProt Q6PSM0); test: P-gp transport, experimental BA/AB ratio, rat LLC-Mdr1a; assay type: in vitro ADME; conditions: LLC-PK1; rat LLC-Mdrla; 1 μM substrate concentration
P-glycoprotein (P-gp, rat Mdr1a), sequence (Q6PSM0 1-1272): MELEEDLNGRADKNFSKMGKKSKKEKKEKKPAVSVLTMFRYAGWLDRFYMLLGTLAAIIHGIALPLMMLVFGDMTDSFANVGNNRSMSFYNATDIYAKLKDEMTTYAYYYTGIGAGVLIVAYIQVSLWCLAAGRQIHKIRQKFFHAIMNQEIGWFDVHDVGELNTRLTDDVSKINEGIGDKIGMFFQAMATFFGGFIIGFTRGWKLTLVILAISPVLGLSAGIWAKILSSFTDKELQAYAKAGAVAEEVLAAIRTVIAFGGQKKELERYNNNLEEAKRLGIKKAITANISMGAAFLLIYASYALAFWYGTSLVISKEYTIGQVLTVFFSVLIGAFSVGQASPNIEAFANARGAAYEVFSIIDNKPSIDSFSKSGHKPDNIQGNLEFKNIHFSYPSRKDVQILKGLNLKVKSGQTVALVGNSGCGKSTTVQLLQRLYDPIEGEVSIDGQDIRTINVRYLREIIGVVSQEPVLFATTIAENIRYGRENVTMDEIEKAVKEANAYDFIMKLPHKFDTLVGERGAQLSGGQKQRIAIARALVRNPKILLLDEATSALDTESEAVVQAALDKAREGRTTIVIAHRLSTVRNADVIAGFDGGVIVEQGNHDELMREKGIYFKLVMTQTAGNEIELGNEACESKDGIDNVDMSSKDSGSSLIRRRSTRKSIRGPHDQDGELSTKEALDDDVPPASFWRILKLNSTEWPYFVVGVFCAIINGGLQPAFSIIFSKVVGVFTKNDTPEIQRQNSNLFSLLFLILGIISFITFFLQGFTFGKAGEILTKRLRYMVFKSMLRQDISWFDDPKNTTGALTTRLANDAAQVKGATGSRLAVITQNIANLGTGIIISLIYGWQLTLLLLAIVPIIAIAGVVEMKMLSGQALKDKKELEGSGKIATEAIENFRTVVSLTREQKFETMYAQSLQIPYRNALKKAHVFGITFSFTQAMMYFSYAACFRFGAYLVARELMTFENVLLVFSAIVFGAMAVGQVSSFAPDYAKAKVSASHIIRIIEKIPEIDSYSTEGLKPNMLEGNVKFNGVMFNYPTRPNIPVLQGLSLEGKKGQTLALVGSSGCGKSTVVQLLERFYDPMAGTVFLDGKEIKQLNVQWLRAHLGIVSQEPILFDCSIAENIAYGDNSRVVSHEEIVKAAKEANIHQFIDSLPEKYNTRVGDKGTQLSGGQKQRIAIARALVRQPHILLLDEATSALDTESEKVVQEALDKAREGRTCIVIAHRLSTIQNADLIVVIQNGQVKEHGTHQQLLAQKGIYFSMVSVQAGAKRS
From the text: as §1

[5] = Lab A, read-out: Rhesus PDE2 Ki (nM) - Lab A
[6] = Lab B, read-out: Rhesus PDE2 Ki (nM) - Lab B
[7] = Lab B, read-out: Human PDE2 Ki (nM) - Lab B
[8] = Lab A, read-out: Human PDE2 Ki (nM) - Lab A

Rhesus PDE2A3, sequence (B3VTJ2 1-941): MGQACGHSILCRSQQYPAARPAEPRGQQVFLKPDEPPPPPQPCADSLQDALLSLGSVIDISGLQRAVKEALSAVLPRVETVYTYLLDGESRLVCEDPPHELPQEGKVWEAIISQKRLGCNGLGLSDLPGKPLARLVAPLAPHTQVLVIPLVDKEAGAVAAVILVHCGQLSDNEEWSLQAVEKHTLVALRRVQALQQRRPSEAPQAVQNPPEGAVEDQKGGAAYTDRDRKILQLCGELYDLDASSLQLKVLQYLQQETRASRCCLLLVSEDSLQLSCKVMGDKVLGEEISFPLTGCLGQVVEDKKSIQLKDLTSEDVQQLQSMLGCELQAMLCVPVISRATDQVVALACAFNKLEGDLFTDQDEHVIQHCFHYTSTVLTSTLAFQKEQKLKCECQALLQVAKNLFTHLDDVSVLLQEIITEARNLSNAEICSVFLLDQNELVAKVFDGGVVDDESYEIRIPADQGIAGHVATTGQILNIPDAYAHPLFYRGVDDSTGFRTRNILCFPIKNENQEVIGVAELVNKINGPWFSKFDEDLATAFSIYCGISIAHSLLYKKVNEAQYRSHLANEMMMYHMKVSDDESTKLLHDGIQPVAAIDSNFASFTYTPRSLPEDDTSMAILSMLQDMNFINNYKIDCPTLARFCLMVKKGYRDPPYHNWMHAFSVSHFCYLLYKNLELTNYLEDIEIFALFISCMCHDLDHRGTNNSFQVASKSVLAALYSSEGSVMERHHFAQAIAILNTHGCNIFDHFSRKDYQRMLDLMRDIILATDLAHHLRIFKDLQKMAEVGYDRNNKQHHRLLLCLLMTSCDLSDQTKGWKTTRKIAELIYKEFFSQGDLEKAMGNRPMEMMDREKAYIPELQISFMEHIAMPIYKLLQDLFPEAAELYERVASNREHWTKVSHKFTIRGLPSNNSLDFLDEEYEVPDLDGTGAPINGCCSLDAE

Molecule CC(C)[C@@H](NC(=O)c1cc(=O)[nH]c(N2CC(F)C2)n1)c1ccc(OC(F)(F)F)c(F)c1 [Example 164, 2-(3-fluoroazetidin-1-yl)-N-{(1R)-1-[3-fluoro-4-(trifluoromethoxy)phenyl]-2-methylpropyl}-6-oxo-1,6-dihydropyrimidine-4-carboxamide] has a Ki [1, 5] of 2.4 nM, a Ki [1, 6] of 4 nM and a Ki [2, 7] of 3.9 nM. The efflux ratio at 1 μM [3] was 2.6 and the efflux ratio at 1 μM [4] was 7.5.

O=C(NC1(c2ccc(C(F)(F)F)c(F)c2)CC1)c1cc(=O)[nH]c(N2CCCC2)n1 [Example 1, N-(1-(3-fluoro-4-(trifluoromethyl)phenyl)cyclopropyl)-6-oxo-2-(pyrrolidin-1-yl)-1,6-dihydropyrimidine-4-carboxamide] gave a Ki [1, 5] of 1.3 nM, a Ki [2, 8] of 0.48 nM and an efflux ratio at 1 μM [3] of 0.8. It also gave an efflux ratio at 1 μM [4] of 7.2.

In the case of CN(C)c1nc(C(=O)N[C@@H](c2ccc(CC(F)(F)F)cc2)C(C)(C)C)cc(=O)[nH]1 [Example 31, 2-(dimethylamino)-N-{(1R)-2,2-dimethyl-1-[4-(2,2,2-trifluoroethyl)phenyl]propyl}-6-oxo-1,6-dihydropyrimidine-4-carboxamide], the Ki [1, 6] is reported as 0.42 nM, the Ki [2, 7] is reported as 0.51 nM and the efflux ratio at 1 μM [3] is reported as 1.5. The efflux ratio at 1 μM [4] was 9.7.

CNc1nc(C(=O)N[C@H](C)c2ccc(C(F)(F)F)cc2)cc(=O)[nH]1 [Example 135, 2-(methylamino)-6-oxo-N-{(1R)-1-[4-(trifluoromethyl)phenyl]ethyl}-1,6-dihydropyrimidine-4-carboxamide] gave a Ki [1, 5] of 36 nM, a Ki [2, 8] of 27 nM and an efflux ratio at 1 μM [3] of 2.7. The efflux ratio at 1 μM [4] was 11.4.

CN(C)c1nc(C(=O)N[C@@H](c2ccc(C(F)F)cc2)C(C)(C)C)cc(=O)[nH]1 [Example 60, N-{(1R)-1-[4-(difluoromethyl)phenyl]-2,2-dimethylpropyl}-2-(dimethylamino)-6-oxo-1,6-dihydropyrimidine-4-carboxamide] showed a Ki [1, 6] of 0.42 nM, a Ki [2, 7] of 0.29 nM and an efflux ratio at 1 μM [3] of 0.8. For the same molecule, the efflux ratio at 1 μM [4] was 4.3.

Molecule CC(C)[C@@H](NC(=O)c1cc(=O)[nH]c(N(C)C)n1)c1ccc(OC(F)F)c(F)c1 [Example 48, N-{(1R)-1-[4-(difluoromethoxy)-3-fluorophenyl]-2-methylpropyl}-2-(dimethylamino)-6-oxo-1,6-dihydropyrimidine-4-carboxamide] has a Ki [1, 6] of 1.9 nM, a Ki [2, 7] of 1.7 nM and an efflux ratio at 1 μM [3] of 1.5. The efflux ratio at 1 μM [4] was 6.4.

CN(C)c1nc(C(=O)N[C@@H](c2ccc(C(F)F)cc2)C2(C)CC2)cc(=O)[nH]1 [Example 61, N-[(R)-[4-(difluoromethyl)phenyl](1-methylcyclopropyl)methyl]-2-(dimethylamino)-6-oxo-1,6-dihydropyrimidine-4-carboxamide] gave a Ki [1, 6] of 0.82 nM, a Ki [2, 7] of 0.75 nM and an efflux ratio at 1 μM [3] of 1.6. For the same molecule, the efflux ratio at 1 μM [4] was 12.3.

CN(C)c1nc(C(=O)N[C@@H](c2ccc(OC(F)(F)F)c(F)c2)C(C)(C)C)cc(=O)[nH]1 [Example 101, 2-(dimethylamino)-N-{(1R)-1-[3-fluoro-4-(trifluoromethoxy)phenyl]-2,2-dimethylpropyl}-6-oxo-1,6-dihydropyrimidine-4-carboxamide] gave a Ki [1, 6] of 0.14 nM, a Ki [2, 7] of 0.12 nM and an efflux ratio at 1 μM [3] of 1.7. It also gave an efflux ratio at 1 μM [4] of 10.1.

With C[C@@H](NC(=O)c1cc(=O)[nH]c(N(C)C)n1)c1ccc(OC(F)(F)F)cc1 [Example 87, 2-(dimethylamino)-6-oxo-N-{(1R)-1-[4-(trifluoromethoxy)phenyl]ethyl}-1,6-dihydropyrimidine-4-carboxamide] the Ki [1, 5] was 1.1 nM, the Ki [2, 8] was 0.74 nM and the efflux ratio at 1 μM [3] was 0.5. The efflux ratio at 1 μM [4] was 2.2.

In the case of CC(C)OCCCOc1nc(C(=O)NC(C)c2ccc(C(F)(F)F)cc2)cc(=O)[nH]1 (stereo not drawn) [Example 183, 2-[3-(1-methylethoxy)propoxy]-6-oxo-N-{1-[4-(trifluoromethyl)phenyl]ethyl}-1,6-dihydro pyrimidine-4-carboxamide], the Ki [1, 5] is reported as 29 nM, the Ki [2, 8] is reported as 23 nM and the efflux ratio at 1 μM [3] is reported as 1.2. It also gave an efflux ratio at 1 μM [4] of 7.9.

C[C@@H](NC(=O)c1cc(=O)[nH]c(NC2CCC2)n1)c1ccc(C(F)(F)F)cc1 [Example 138, 2-(cyclobutylamino)-6-oxo-N-{(1R)-1-[4-(trifluoromethyl)phenyl]ethyl}-1,6-dihydropyrimidine-4-carboxamide] was tested, and the Ki [1, 5] was 67 nM, the Ki [2, 8] was 38 nM and the efflux ratio at 1 μM [3] was 1.2. It also gave an efflux ratio at 1 μM [4] of 29.8.

Molecule CNc1nc(C(=O)N[C@@H](c2ccc(SC(F)(F)F)c(F)c2)C(C)C)cc(=O)[nH]1 [Example 155, N-[(1R)-1-{3-fluoro-4-[(trifluoromethyl)sulfanyl]phenyl}-2-methylpropyl]-2-(methylamino)-6-oxo-1,6-dihydropyrimidine-4-carboxamide] has a Ki [1, 5] of 4.3 nM, a Ki [2, 8] of 1.2 nM and an efflux ratio at 1 μM [3] of 4.2. The efflux ratio at 1 μM [4] was 9.

In the case of CC(C)[C@@H](NC(=O)c1cc(=O)[nH]c(N(C)C)n1)c1ccc(SC(F)(F)F)cc1 [Example 30, 2-(dimethylamino)-N-[(1R)-2-methyl-1-{4-[(trifluoromethyl)sulfanyl]phenyl}propyl]-6-oxo-1,6-dihydropyrimidine-4-carboxamide], the Ki [1, 5] is reported as 0.19 nM, the Ki [1, 6] is reported as 0.22 nM and the Ki [2, 8] is reported as at most 5.1 nM. It also gave a Ki [2, 7] of 0.37 nM, an efflux ratio at 1 μM [3] of 0.4 and an efflux ratio at 1 μM [4] of 2.6.

Work on CN(C)c1nc(C(=O)N[C@@H](c2ccc(SC(F)(F)F)c(F)c2)C2CC2)cc(=O)[nH]1 [Example 97, N-[(R)-cyclopropyl{3-fluoro-4-[(trifluoromethyl)sulfanyl]phenyl}methyl]-2-(dimethylamino)-6-oxo-1,6-dihydropyrimidine-4-carboxamide] yielded a Ki [1, 5] of 0.62 nM, a Ki [2, 8] of 0.34 nM and an efflux ratio at 1 μM [3] of 0.4. The efflux ratio at 1 μM [4] was 1.8.

With CC(C)[C@@H](NC(=O)c1cc(=O)[nH]c(N(C)C)n1)c1ccc(C(F)(F)F)c(F)c1 [Example 112, 2-(dimethylamino)-N-{(1R)-1-[3-fluoro-4-(trifluoromethyl)phenyl]-2-methylpropyl}-6-oxo-1,6-dihydropyrimidine-4-carboxamide] the Ki [1, 5] was 0.27 nM, the Ki [1, 6] was 0.44 nM and the Ki [2, 7] was 0.55 nM. It also gave an efflux ratio at 1 μM [3] of 0.7 and an efflux ratio at 1 μM [4] of 4.7.

For C[C@@H](NC(=O)c1cc(=O)[nH]c(N2CC(F)C2)n1)c1ccc(C(F)(F)F)cc1 [Example 23, 2-(3-Fluoroazetidin-1-yl)-6-oxo-N-{(1R)-1-[4-(trifluoromethyl)phenyl]ethyl}-1,6-dihydropyrimidine-4-carboxamide], the Ki [1, 5] was 27 nM, the Ki [2, 8] was 16 nM and the efflux ratio at 1 μM [3] was 1.4. It also gave an efflux ratio at 1 μM [4] of 7.6.

With CN(C)c1nc(C(=O)N[C@@H](c2ccc(S(F)(F)(F)(F)F)cc2)C2CC2)cc(=O)[nH]1 [Example 4, (R)—N-(cyclopropyl(4-(pentafluoro-λ^6-sulfanyl)phenyl)methyl)-2-(dimethylamino)-6-oxo-1,6-dihydropyrimidine-4-carboxamide] the Ki [1, 6] was 1.2 nM, the Ki [2, 7] was 1 nM and the efflux ratio at 1 μM [3] was 0.6. For the same molecule, the efflux ratio at 1 μM [4] was 3.1.

Work on C[C@@H](NC(=O)c1cc(=O)[nH]c(N2CCCCC2)n1)c1ccc(C(F)(F)F)cc1 [Example 131, 6-oxo-2-piperidin-1-yl-N-{(1R)-1-[4-(trifluoromethyl)phenyl]ethyl}-1,6-dihydropyrimidine-4-carboxamide] yielded a Ki [1, 5] of 32 nM, a Ki [2, 8] of 24 nM and an efflux ratio at 1 μM [3] of 0.3. For the same molecule, the efflux ratio at 1 μM [4] was 1.5.

CN(C)c1nc(C(=O)N[C@@H](c2ccc(C3CC3)c(F)c2)C(C)(C)C)cc(=O)[nH]1 [Example 58, N-[(1R)-1-(4-cyclopropyl-3-fluorophenyl)-2,2-dimethylpropyl]-2-(dimethylamino)-6-oxo-1,6-dihydropyrimidine-4-carboxamide] gave a Ki [1, 6] of 0.1 nM, a Ki [2, 7] of 0.03 nM and an efflux ratio at 1 μM [3] of 1.3. For the same molecule, the efflux ratio at 1 μM [4] was 4.7.

Work on CN(C)c1nc(C(=O)N[C@@H](c2ccc(OC(F)(F)F)cc2)C(C)(C)C)cc(=O)[nH]1 [Example 100, 2-(dimethylamino)-N-{(1R)-2,2-dimethyl-1-[4-(trifluoromethoxy)phenyl]propyl}-6-oxo-1,6-dihydropyrimidine-4-carboxamide] yielded a Ki [1, 6] of 0.17 nM, a Ki [2, 7] of 0.21 nM and an efflux ratio at 1 μM [3] of 0.7. For the same molecule, the efflux ratio at 1 μM [4] was 2.9.

For CC(C)(C)[C@@H](NC(=O)c1cc(=O)[nH]c(N2CC[C@H](F)C2)n1)c1ccc(C(F)(F)F)cc1 [Example 169, N-{(1R)-2,2-dimethyl-1-[4-(trifluoromethyl)phenyl]propyl}-2-[(3S)-3-fluoropyrrolidin-1-yl]-6-oxo-1,6-dihydropyrimidine-4-carboxamide], the Ki [1, 6] was 0.14 nM, the Ki [2, 7] was 0.17 nM and the efflux ratio at 1 μM [3] was 2.5. The efflux ratio at 1 μM [4] was 9.8.

For CN(C)c1nc(C(=O)N[C@@H](c2ccc(SC(F)(F)F)cc2)C2CC2)cc(=O)[nH]1 [Example 111, N-[(R)-cyclopropyl{4-[(trifluoromethyl)sulfanyl]phenyl}methyl]-2-(dimethylamino)-6-oxo-1,6-dihydropyrimidine-4-carboxamide], the Ki [1, 5] was 0.41 nM, the Ki [1, 6] was 0.8 nM and the Ki [2, 7] was 0.9 nM. For the same molecule, the efflux ratio at 1 μM [3] was 0.3 and the efflux ratio at 1 μM [4] was 2.
